Laboratory results reported in patent US12612409B2, “Pyrrolopyrimidines as CFTR potentiators” (Cystic Fibrosis Foundation, priority 2016, dated 2026).

How the values were obtained:
[1] = target: T1, CFTR in F508del/F508del primary CF hBE cells (Homo sapiens, UniProt P13569, DEL508-508); assay: Ussing chamber electrophysiology assay of CFTR potentiation in F508del/F508del CF bronchial epithelial cells (27° C.); format: cell-based
T1 construct: Primary cystic fibrosis human bronchial epithelial (CF hBE) cells were expanded and cultured; endogenous in cells; host or cells: primary CF human bronchial epithelial cells, genotype F508del/F508del
T1 sequence (P13569 with tags, fused parts or gaps DEL508-508): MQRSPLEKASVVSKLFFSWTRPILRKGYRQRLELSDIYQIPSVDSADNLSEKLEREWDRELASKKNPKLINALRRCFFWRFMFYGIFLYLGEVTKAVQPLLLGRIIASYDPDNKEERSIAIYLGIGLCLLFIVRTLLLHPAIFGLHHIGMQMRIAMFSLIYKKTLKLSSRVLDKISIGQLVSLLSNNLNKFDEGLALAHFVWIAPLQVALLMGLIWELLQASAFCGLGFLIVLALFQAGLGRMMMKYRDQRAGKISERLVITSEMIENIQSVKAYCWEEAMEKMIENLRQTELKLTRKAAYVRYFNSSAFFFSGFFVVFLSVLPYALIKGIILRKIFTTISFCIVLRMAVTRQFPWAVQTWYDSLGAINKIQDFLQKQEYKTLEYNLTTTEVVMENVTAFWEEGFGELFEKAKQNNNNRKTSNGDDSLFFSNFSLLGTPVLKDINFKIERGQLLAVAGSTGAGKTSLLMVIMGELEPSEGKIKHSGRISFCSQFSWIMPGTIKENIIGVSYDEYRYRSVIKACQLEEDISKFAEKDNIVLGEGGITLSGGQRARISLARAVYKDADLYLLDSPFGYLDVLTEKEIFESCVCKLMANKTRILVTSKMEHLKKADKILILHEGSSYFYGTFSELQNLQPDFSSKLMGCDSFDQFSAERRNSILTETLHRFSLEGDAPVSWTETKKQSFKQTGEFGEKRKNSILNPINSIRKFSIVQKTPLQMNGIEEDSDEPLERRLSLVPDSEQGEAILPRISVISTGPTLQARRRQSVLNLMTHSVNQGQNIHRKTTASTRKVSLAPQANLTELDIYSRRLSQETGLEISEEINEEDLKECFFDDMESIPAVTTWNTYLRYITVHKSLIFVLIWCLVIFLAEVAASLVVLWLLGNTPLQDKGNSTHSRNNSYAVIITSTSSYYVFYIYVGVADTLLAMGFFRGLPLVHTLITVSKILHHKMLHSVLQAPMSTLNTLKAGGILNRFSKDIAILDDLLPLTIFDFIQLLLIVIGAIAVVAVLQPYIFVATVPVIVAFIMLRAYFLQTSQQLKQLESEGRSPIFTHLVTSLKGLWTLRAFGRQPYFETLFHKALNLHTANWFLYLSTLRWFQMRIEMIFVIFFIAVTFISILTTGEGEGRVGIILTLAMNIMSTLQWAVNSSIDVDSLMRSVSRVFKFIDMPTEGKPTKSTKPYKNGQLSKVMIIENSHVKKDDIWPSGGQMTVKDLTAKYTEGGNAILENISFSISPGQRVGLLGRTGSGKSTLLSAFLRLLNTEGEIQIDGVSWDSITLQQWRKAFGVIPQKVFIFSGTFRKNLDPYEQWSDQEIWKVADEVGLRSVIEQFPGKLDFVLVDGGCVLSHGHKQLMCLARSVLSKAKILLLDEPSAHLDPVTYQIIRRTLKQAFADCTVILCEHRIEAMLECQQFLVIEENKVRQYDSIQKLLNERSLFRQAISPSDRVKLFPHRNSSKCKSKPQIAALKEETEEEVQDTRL
Outline: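 Well-differentiated primary CF hBE cells (>30 days air/liquid interface) in Ussing chambers, HEPES saline both sides, voltage clamped to zero. Amiloride 30 uM, forskolin 10 uM, four rising compound concentrations, then CFTRinh-172 20 uM added at 20-25 min intervals. Short-circuit current scaled to DMSO (0%) and a positive control potentiator maximum (100%).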

[2] = target: T2, recombinant F508del V470 CFTR in Fischer rat thyroid (FRT) cells (Homo sapiens, UniProt P13569, DEL508-508); assay: FRT ion flux assay of F508del CFTR potentiation; format: cell-based; conditions: FRT cells expressing F508del V470 CFTR, forskolin 20 uM, 27° C. pre-incubation
T2 construct: expressed in transfected cells
T2 sequence (P13569 with tags, fused parts or gaps DEL508-508): as above
Outline: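 FRT cells co-expressing F508del V470 CFTR and halide-sensitive YFP, temperature-corrected at 27° C for 16-24 h, then treated 30 min with compound plus 20 uM forskolin. Iodide addition quenches YFP, read after ~21 s; ratio scaled to DMSO (0%) and positive control potentiator (100%).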

CCC(c1cn(-c2ccc(F)cc2F)nn1)n1cc(-c2cncnc2OC)c2c(N)ncnc21 (single isomer, unassigned; enantiomer 2) [Example 160, (−) 7-{1-[1-(2,4-Difluorophenyl)-1H-1,2,3-triazol-4-yl]propyl}-5-(4-methoxypyrimidin-5-yl)-7H-pyrrolo[2,3-d]pyrimidin-4-amine, enantiomer 2]
EC50 [1]: 593 nM | EC50 [2]: 452 nM

CCC(c1cn(-c2ccc(F)cc2F)nn1)n1cc(-c2cc(F)cnc2OC)c2c(N)ncnc21 (single isomer, unassigned; enantiomer 2) [Example 164, 7-{1-[1-(2,4-Difluorophenyl)-1H-1,2,3-triazol-4-yl]propyl}-5-(5-fluoro-2-methoxypyridin-3-yl)-7H-pyrrolo[2,3-d]pyrimidin-4-amine, enantiomer 2]
EC50 [1]: 4.58 nM | EC50 [2]: 8.18 nM

CCC(c1cn(-c2ccc(F)cc2F)nn1)n1cc(-c2cnc(OC)c(F)c2)c2c(N)ncnc21 (single isomer, unassigned; enantiomer 2) [Example 166, 7-{1-[1-(2,4-Difluorophenyl)-1H-1,2,3-triazol-4-yl]propyl}-5-(5-fluoro-6-methoxypyridin-3-yl)-7H-pyrrolo[2,3-d]pyrimidin-4-amine, enantiomer 2]
EC50 [1]: 9 nM | EC50 [2]: 24.6 nM

CCC(c1cn(-c2ccc(F)cc2F)nn1)n1cc(-c2cnc(C(F)F)nc2)c2c(N)ncnc21 (single isomer, unassigned; enantiomer 2) [Example 168, 5-[2-(Difluoromethyl)pyrimidin-5-yl]-7-{1-[1-(2,4-difluorophenyl)-1H-1,2,3-triazol-4-yl]propyl}-7H-pyrrolo[2,3-d]pyrimidin-4-amine, enantiomer 2]
EC50 [1]: 2330 nM | EC50 [2]: 2950 nM

CCC(c1cn(-c2cccc(F)c2F)nn1)n1cc(-c2cc(F)cnc2OC)c2c(N)ncnc21 (single isomer, unassigned; enantiomer 2) [Example 170, 7-{1-[1-(2,3-Difluorophenyl)-1H-1,2,3-triazol-4-yl]propyl}-5-(5-fluoro-2-methoxypyridin-3-yl)-7H-pyrrolo[2,3-d]pyrimidin-4-amine, enantiomer 2]
EC50 [1]: 48.8 nM | EC50 [2]: 214 nM

CCC(c1cn(-c2cc(F)ccc2F)nn1)n1cc(-c2cc(F)cnc2OC)c2c(N)ncnc21 (single isomer, unassigned; enantiomer 2) [Example 172, 7-{1-[1-(2,5-Difluorophenyl)-1H-1,2,3-triazol-4-yl]propyl}-5-(5-fluoro-2-methoxypyridin-3-yl)-7H-pyrrolo[2,3-d]pyrimidin-4-amine, enantiomer 2]
EC50 [1]: 77.6 nM | EC50 [2]: 203 nM

CCC(c1cnn(-c2ccccc2F)c1)n1cc(-c2cnc(C(F)(F)F)nc2)c2c(N)ncnc21 (single isomer, unassigned; enantiomer 2) [Example 176, 7-{(1-[1-(2-Fluorophenyl)-1H-pyrazol-4-yl]propyl}-5-[2-(trifluoromethyl)pyrimidin-5-yl]-7H-pyrrolo[2,3-d]pyrimidin-4-amine, enantiomer 2]
EC50 [1]: 106 nM | EC50 [2]: 204 nM

CC(c1cc(-c2ccccc2F)no1)n1cc(-c2ccc(Cl)cc2)c2c(N)ncnc21 (single isomer, unassigned; enantiomer 2) [Example 182, (−)-5-(4-Chlorophenyl)-7-{1-[3-(2-fluorophenyl)-1,2-oxazol-5-yl]ethyl}-7H-pyrrolo[2,3-d]pyrimidin-4-amine, enantiomer 2]
EC50 [1]: 446 nM | EC50 [2]: 468 nM

COc1ncncc1-c1cn(C(c2cn(-c3ccccc3F)nn2)C2CC2)c2ncnc(N)c12 (single isomer, unassigned; enantiomer 2) [Example 300, (−) 7-{Cyclopropyl[1-(2-fluorophenyl)-1H-1,2,3-triazol-4-yl]methyl}-5-(4-methoxypyrimidin-5-yl)-7H-pyrrolo[2,3-d]pyrimidin-4-amine, enantiomer 2]
EC50 [1]: 453 nM | EC50 [2]: 154 nM

CCC(c1cn(-c2ccccc2F)nn1)n1cc(-c2cncnc2OC)c2c(N)nc(C)nc21 (single isomer, unassigned; enantiomer 2) [Example 304, (−) 7-{1-[1-(2-fluorophenyl)-1H-1,2,3-triazol-4-yl]propyl}-5-(4-methoxypyrimidin-5-yl)-2-methyl-7H-pyrrolo[2,3-d]pyrimidin-4-amine, enantiomer 2]
EC50 [1]: 135 nM | EC50 [2]: 190 nM

CCC(c1cn(-c2cccc(F)c2F)nn1)n1cc(-c2cncnc2OC)c2c(N)ncnc21 (single isomer, unassigned; enantiomer 2) [Example 306, (+) 7-{1-[1-(2,3-Difluorophenyl)-1H-1,2,3-triazol-4-yl]propyl}-5-(4-methoxypyrimidin-5-yl)-7H-pyrrolo[2,3-d]pyrimidin-4-amine, enantiomer 2]
EC50 [1]: 26.1 nM | EC50 [2]: 22.2 nM

CCC(c1cn(-c2cc(F)ccc2F)nn1)n1cc(-c2cncnc2OC)c2c(N)ncnc21 (single isomer, unassigned; enantiomer 2) [Example 308, (−) 7-{1-[1-(2,5-Difluorophenyl)-1H-1,2,3-triazol-4-yl]propyl}-5-(4-methoxypyrimidin-5-yl)-7H-pyrrolo[2,3-d]pyrimidin-4-amine, enantiomer 2]
EC50 [1]: 430 nM | EC50 [2]: 362 nM

CCC(c1cn(-c2cc(F)cc(F)c2)nn1)n1cc(-c2cnc(C(F)(F)F)nc2)c2c(N)ncnc21 (single isomer, unassigned; enantiomer 2) [Example 312, 7-{1-[1-(3,5-Difluorophenyl)-1H-1,2,3-triazol-4-yl]propyl}-5-[2-(trifluoromethyl)pyrimidin-5-yl]-7H-pyrrolo[2,3-d]pyrimidin-4-amine, enantiomer 2]
EC50 [1]: 279 nM | EC50 [2]: 1020 nM

CCC(c1cn(-c2ccc(F)c(F)c2)nn1)n1cc(-c2cnc(C(F)F)nc2)c2c(N)ncnc21 (single isomer, unassigned; enantiomer 2) [Example 313, 5-[2-(Difluoromethyl)pyrimidin-5-yl]-7-{1-[1-(3,4-difluorophenyl)-1H-1,2,3-triazol-4-yl]propyl}-7H-pyrrolo[2,3-d]pyrimidin-4-amine, enantiomer 2]
EC50 [1]: 131 nM | EC50 [2]: 74.9 nM

CCC(c1cn(-c2ccccc2F)nn1)n1cc(C2CC2)c2c(N)ncnc21 (single isomer, unassigned; enantiomer 2) [Example 316, (+) 5-Cyclopropyl-7-{1-[1-(2-fluorophenyl)-1H-1,2,3-triazol-4-yl]propyl}-7H-pyrrolo[2,3-d]pyrimidin-4-amine, enantiomer 2]
EC50 [1]: 541 nM | EC50 [2]: 754 nM

CC(c1cn(-c2ccc(F)cc2F)nn1)n1c(C#N)c(-c2ccc(OC3CC3)nc2)c2c(N)ncnc21 (single isomer, unassigned; enantiomer 2) [Example 321, 4-Amino-5-[6-(cyclopropyloxy)pyridin-3-yl]-7-{1-[1-(2,4-difluorophenyl)-1H-1,2,3-triazol-4-yl]ethyl}-7H-pyrrolo[2,3-d]pyrimidine-6-carbonitrile, enantiomer 2]
EC50 [1]: 141 nM | EC50 [2]: 359 nM

CC(C)n1cc(Cn2c(C#N)c(-c3ccc(Cl)cc3)c3c(N)ncnc32)cn1 [Example 25, 4-Amino-5-(4-chlorophenyl)-7-{[1-(propan-2-yl)-1H-pyrazol-4-yl]methyl}-7H-pyrrolo[2,3-d]pyrimidine-6-carbonitrile]
EC50 [1]: 41 nM | EC50 [2]: 95.9 nM
